We go through one compound from US6541490B1, “Bipyridine manganese complexes” (Eukarion, Inc., priority 1998, dated 2003).

Holding throughout (format): biochemical
A short description of test [1]: Superoxide dismutase (SOD) assay: xanthene oxidase/hypoxanthene, XTT reduction. The conditions noted are these: SOD activity from IC50 of XTT reduction (one International Unit), normalised; 0.05M Tris/HCl pH 7.4, 25° C. How it is done:
This method is adapted from what has become the standard method for the measurement of SOD activity (McCord J. M., Fridovich, I., J. Biol. Chem. 244, 6049-6055, 1969). Briefly, a steady-state production of superoxide anion was maintained by the action of xanthene oxidase (XO) on hypoxanthene (HX) at physiological pH. Presence of the anion was measured by the reduction of XTT (3′-{1-(phenylamino)-carbonyl]-3,4-tetrazolium]-bis(4-methoxy-6-nitro)benzsulphonic acid to a water-soluble product with an absorbance maximum at ˜470 nm. Hypoxanthene concentrations were titrated so as to give a steady-state rate of XTT reduction of 0.025 Optical Density Units (OD) per minute at 25° C.
(§1) The assays for compound antioxidant activity were carried out in 96-well microtitre plates using a DIAS modular assay robot instrument (Dynatech Ltd.) Compounds were solublised in DMF at 10 mM. DMF concentrations in the assay never exceeded 1%, were tolerated and were controlled for in assay plates.
Xanthene oxidase (Sigma X1875) 0.01 U/ml and XTT (Sigma X4251), 0.5 mM and hypoxanthene (Sigma H9377), typically at […], were incubated in the presence of various doses of compounds at 25° C. in 0.05M Tris/HCI pH 7.4. Rates of XTT reduction were measured over 5 minutes at 490 nm. Dose-response curves were constructed for inhibition by the compound of control rates of XTT reduction. […]
Background: Tetrazolium dyes change colour on reduction, which living cells bring about.

Test [2] is described as follows: Catalase (CAT) assay: removal of hydrogen peroxide, HRP/ABTS read-out. The conditions noted are these: amount of hydrogen peroxide removed per minute, per mmol of compound; 0.05M Tris HCl pH 7.4, 25° C., 60 mins.
Source text: This method measures catalase activity as the ability to remove hydrogen peroxide from solution in the absence of hydrogen donors over one hour. After this time any remaining peroxide was removed by introduction to the mixture of high concentrations of horseradish peroxidase and the hydrogen donor 2,2′-azino-di-[3-ethyl-benzothiazoline-(6)-sulphonic acid (ABTS). This rapid reaction produces peroxide-concentration-dependant product with a maximal absorbance at 405 nm.
as §1
Hydrogen peroxide (Sigma H1009) 100 mM was incubated with various concentrations of compound in 0.05M Tris HCI pH 7.4 at 25° C. for 60 mins. […] Plates were then read for absorbance at 405 nm. A standard curve for absorbance against known hydrogen peroxide concentration was constructed. Absorbance data for wells containing compound were interpolated against this curve using the software tools Excel (Microsoft Corp.) and Xlfit (ID Business Solutions). […]
The catalase assay procedure described above provides certain advantages over previously described assays. […] The oxidation of ABTS results in a colour change which can be measured. […]

A short description of test [3]: Peroxidase (POD) assay: hydrogen peroxide removal with hydrogen donor ABTS. As to conditions: ABTS 3 mM, 0.05M Tris HCl pH 7.4, 25° C., 2 minutes, interpolated against horseradish peroxidase standard curve. How it is done: This method measures the ability of the compounds to remove hydrogen peroxide in the presence of the hydrogen donor 2,2′-azino-di-[3-ethyl-benzothiazoline-(6)-sulphonic acid (ABTS) (Galati, H., J. Clin. Chem. Clin. Biochem. (1979) 17, 1-7).
as §1
ABTS (Sigma A-1888) 3 mM was incubated with various concentrations of compound in 0.05M Tris HCI pH 7.4 at 25° C. A range of standard concentrations of horseradish peroxidase (Sigma P-6140) were included on each microtitre plate. Hydrogen peroxide (Sigma H1009) 100 mM was added and the plate incubated at 25° C. for 2 minutes. Absorbance at 405 nm was measured and the rates of ABTS […] calculated. A standard curve was constructed using data from wells containing known concentrations of peroxidase. Data for wells containing compound were interpolated against this curve using the software tools Excel (Microsoft Corp.) and Xlfit (ID Business Solutions). Estimations of peroxidase activity were given as International Units of peroxidase activity/mmol compound.

In test [1], `CCCCCCc1cccc2c1[O][Mn]([O]C(C)=O)[O]c1c(CCCCCC)cccc1-c1cccc(n1)-c1cccc-2n1` [Example 18, 6,6′-bis(3-Hexyl-2-hydroxyphenyl)-2,2′-bipyridine-manganese(III)acetate] registered an SOD of 41.43 U/mmol compound. In test [2], the CAT is recorded as 0.0083. For the same compound, the POD in test [3] is 209.92 International Units of peroxidase activity/mmol compound.
